# According to US7964624B1, “Inhibitors of serine proteases” (priority 2005, dated 2011):
# Columns and labels:
# HCV NS3 protease domain = molecular target: T1, HCV NS3 protease domain (Hepatitis C virus genotype 1b, UniProt Q9WMX2); experiment: biochemical; conditions: Enzyme Assay 1 (HCV NS3 Protease Domain Peptide Cleavage Assay) activity, apparent Ki class
# T1 construct: The first 181 amino acids of NS3 (residues 1027-1207 of the viral polyprotein); hexa-histidine (C); made in house; host or cells: E. coli BL21/DE3 pLysS
# [1] = molecular target: T2, full-length hepatitis C viral protein NS3•4A (Hepatitis C virus genotype 1a, UniProt P27958); experiment: biochemical; parameters: species or system HCV sub-type strain 1a; conditions: Enzyme Assay 2 (HCV NS3 Peptide Cleavage Assay) activity, apparent Ki class
# T2 construct: hexa-histidine (N); made in house; host or cells: Sf9 insect cells (baculovirus, pVL1392)
Compound,Ki (HCV NS3 protease domain) [µM],Ki [1] [µM]
CCC[C@H](NC(=O)[C@@H]1C[C@]2(CC(c3cccc(Cl)c3)=NO2)CN1C(=O)[C@@H](NC(=O)CC1CCCCC1)C(C)(C)C)C(=O)C(=O)NC[C@H]1CCCO1 [Compound 277],> 0.5,0.1 to 0.5
CCC[C@H](NC(=O)[C@@H]1C[C@]2(CC(c3cccc(Cl)c3)=NO2)CN1C(=O)c1cccc(S(=O)(=O)N2CCc3ccccc3C2)c1)C(=O)C(=O)NC1CC1 [Compound 328],> 0.5,> 0.5
CCC[C@H](NC(=O)[C@@H]1C[C@]2(CC(c3cccnc3OC)=NO2)CN1C(=O)[C@@H](NC(=O)CC1CCCCC1)C(C)(C)C)C(=O)C(=O)NC1CC1 [Compound 469],> 0.5,0.1 to 0.5
CC(C)(C)OC(=O)N[C@H]1CCCCC/C=C\[C@@H]2C[C@@]2(C(=O)O)NC(=O)[C@@H]2C[C@]3(CC(C(=O)c4ccccc4)=NO3)CN2C1=O [Compound 320],> 0.5,> 0.5
CC(C)(C)[C@H](NC(=O)CC1CCCCC1)C(=O)N1C[C@@]2(CC(c3cncc(Cl)c3)=NO2)C[C@H]1C(=O)NC(CC1CCC1)C(=O)C(=O)NC1CC1 (stereo partly shown) [Compound 132],0.1 to 0.5,0.1 to 0.5
CCC[C@H](NC(=O)[C@@H]1C[C@]2(CC(c3cccc(Cl)c3)=NO2)CN1C(=O)[C@@H](NC(=O)CC1CCCCC1)C(C)(C)C)C(=O)C(=O)NCCOC [Compound 404],> 0.5,0.1 to 0.5
CCC[C@H](NC(=O)[C@@H]1C[C@]2(CC(c3cccc(Cl)c3)=NO2)CN1C(=O)[C@@H](NC(=O)CC1CCCCC1)C(C)(C)C)C(=O)C(=O)Nc1ccon1 [Compound 293],> 0.5,> 0.5
CCC[C@H](NC(=O)[C@@H]1C[C@]2(CC(c3cc(Cl)c4c(c3)CCC(C)(C)O4)=NO2)CN1C(=O)[C@@H](NC(=O)CC1CCCCC1)C(C)(C)C)C(=O)C(=O)NC1CC1 [Compound 74],0.1 to 0.5,< 0.1
CCC[C@H](NC(=O)[C@@H]1C[C@]2(CC(c3cccc(Cl)c3)=NO2)CN1C(=O)[C@@H](NC(=O)CC1CCCCC1)C(C)(C)C)C(=O)C(=O)NC1CCS(=O)(=O)C1 (stereo partly shown) [Compound 565],> 0.5,> 0.5
CCC[C@H](NC(=O)[C@@H]1C[C@]2(CC(c3cccc(Cl)c3)=NO2)CN1C(=O)[C@@H](NC(=O)CC1CCCCC1)C(C)(C)C)C(=O)C(=O)N1CCC[C@@H]1COC [Compound 347],> 0.5,> 0.5
CCC[C@H](NC(=O)[C@@H]1C[C@]2(CC(c3cccc(Cl)c3)=NO2)CN1C(=O)[C@@H](NC(=O)CC1CCCCC1)C(C)(C)C)C(=O)C(=O)NC1CCCCC1 [Compound 99],> 0.5,> 0.5
CCC[C@H](NC(=O)[C@@H]1C[C@]2(CC(c3cccc(Cl)c3)=NO2)CN1C(=O)[C@@H](NC(=O)CC1CCCCC1)C(C)(C)C)C(=O)C(=O)Nc1ccc2c(C)cc(=O)[nH]c2c1 [Compound 181],> 0.5,> 0.5
CCC[C@H](NC(=O)[C@@H]1C[C@]2(CC(c3cc(Cl)c4c(c3)CCCN4C)=NO2)CN1C(=O)[C@@H](NC(=O)CC1CCCCC1)C(C)(C)C)C(=O)C(=O)NC1CC1 [Compound 430],0.1 to 0.5,< 0.1
CCC[C@H](NC(=O)[C@@H]1C[C@]2(CC(c3cccc(Cl)c3)=NO2)CN1C(=O)[C@@H](NC(=O)CC1CCCCC1)C(C)(C)C)C(=O)C(=O)NCc1cc(OC)cc(OC)c1 [Compound 127],0.1 to 0.5,0.1 to 0.5
CN(C)C(=O)C(=O)[C@@H](CC1CCC1)NC(=O)[C@@H]1C[C@]2(CC(c3cccc(Cl)c3)=NO2)CN1C(=O)[C@@H](NC(=O)CC1CCCCC1)C(C)(C)C [Compound 188],> 0.5,> 0.5
CCC[C@H](NC(=O)[C@@H]1C[C@]2(CC(c3cccc(Cl)c3)=NO2)CN1C(=O)[C@@H](NC(=O)CC1CCCCC1)C(C)(C)C)C(=O)C(=O)N(C)C [Compound 253],> 0.5,> 0.5
CCC[C@H](NC(=O)[C@@H]1C[C@]2(CC(c3cccc(Cl)c3)=NO2)CN1C(=O)[C@@H](CC(=O)NC(C)C)C(C)C)C(=O)C(=O)NC1CC1 [Compound 280],> 0.5,> 0.5
CCC[C@H](NC(=O)[C@@H]1C[C@]2(CC(c3cccc(Cl)c3)=NO2)CN1C(=O)[C@H](NC(=O)CC1CCCCC1)C(C)(C)C)C(=O)C(=O)N(CC)CC [Compound 113],> 0.5,> 0.5
CC(C)(C)[C@H](NC(=O)CC1CCCCC1)C(=O)N1C[C@@]2(CC(c3cccc(Cl)c3)=NO2)C[C@H]1C(=O)N[C@@H](CC1CC1)C(=O)C(N)=O [Compound 388],< 0.1,< 0.1
CCC[C@H](NC(=O)[C@@H]1C[C@]2(CC(c3cccc(Cl)c3)=NO2)CN1C(=O)[C@@H](NC(=O)CC1CCCCC1)C(C)(C)C)C(=O)C(=O)NCCC(=O)Nc1cc(OC)c2ccccc2c1 [Compound 206],0.1 to 0.5,0.1 to 0.5
CCC[C@H](NC(=O)[C@@H]1C[C@]2(CC(c3cccc(Cl)c3)=NO2)CN1C(=O)[C@@H](NC(=O)CC1CCCCC1)C(C)(C)C)C(=O)C(=O)NCCOc1ccccc1OC [Compound 488],> 0.5,0.1 to 0.5

Compound,Ki (HCV NS3 protease domain) [µM],Ki [1] [µM]
CCC[C@H](NC(=O)[C@@H]1C[C@]2(CC(c3cccc(Cl)c3)=NO2)CN1C(=O)[C@H](Cc1ccc(OC(C)C)cc1)NC(C)=O)C(=O)C(=O)NC1CC1 [Compound 332],> 0.5,0.1 to 0.5
CCC[C@H](NC(=O)[C@@H]1C[C@]2(CC(c3cccc(Cl)c3)=NO2)CN1C(=O)[C@@H](NC(=O)CC1CCCCC1)C(C)(C)C)C(=O)C(=O)NC(C)Cc1c[nH]c2ccc(C(C)=O)cc12 (stereo partly shown) [Compound 138],> 0.5,> 0.5
CCC[C@H](NC(=O)[C@@H]1C[C@]2(CC(c3cccc(Cl)c3)=NO2)CN1C(=O)[C@@H](NC(=O)CC1(C)CCCCC1)C(C)(C)C)C(=O)C(=O)NC1CC1 [Compound 29],0.1 to 0.5,0.1 to 0.5
CCC[C@H](NC(=O)[C@@H]1C[C@]2(CC(c3ccsc3)=NO2)CN1C(=O)[C@@H](NC(=O)CC1CCCCC1)C(C)(C)C)C(=O)C(=O)NC1CC1 [Compound 168],0.1 to 0.5,0.1 to 0.5
CCC[C@H](NC(=O)[C@@H]1C[C@]2(CC(c3cc(Cl)ccc3OC)=NO2)CN1C(=O)[C@@H](NC(=O)CC1CCCCC1)C(C)(C)C)C(=O)C(=O)NC1CC1 [Compound 158],< 0.1,< 0.1
CCC[C@H](NC(=O)[C@@H]1C[C@]2(CC(c3ccccc3C#N)=NO2)CN1C(=O)[C@@H](NC(=O)CC1CCCCC1)C(C)(C)C)C(=O)C(=O)NC1CC1 [Compound 28],> 0.5,0.1 to 0.5
CCC[C@H](NC(=O)[C@@H]1C[C@]2(CC(c3cccc(Cl)c3)=NO2)CN1C(=O)C(NS(=O)(=O)c1ccccc1)c1ccccc1)C(=O)C(=O)NC1CC1 (stereo partly shown) [Compound 501],> 0.5,> 0.5
CCC[C@H](NC(=O)[C@@H]1C[C@]2(CC(c3cccc(Cl)c3)=NO2)CN1C(=O)[C@@H](NS(=O)(=O)c1ccc(OC)cc1)C(C)CC)C(=O)C(=O)NC1CC1 (stereo partly shown) [Compound 534],> 0.5,> 0.5
CCC[C@H](NC(=O)[C@@H]1CC2(CC(c3cccc(Cl)c3)=NO2)CN1C(=O)[C@H](Cc1ccc(O)cc1)NC(C)=O)C(=O)C(=O)NC1CC1 (stereo partly shown) [Compound 412],0.1 to 0.5,0.1 to 0.5
CN(C)C(=O)C(=O)[C@H](CC1CCC1)NC(=O)[C@@H]1C[C@]2(CC(c3cccc(Cl)c3)=NO2)CN1C(=O)[C@@H](NC(=O)CC1CCCCC1)C(C)(C)C [Compound 63],> 0.5,> 0.5
CCC[C@H](NC(=O)[C@@H]1C[C@]2(CC(c3cccc(Cl)c3)=NO2)CN1C(=O)[C@@H](NC(=O)CC1CCCCC1)C(C)(C)C)C(=O)C(=O)NCC(C)C [Compound 143],0.1 to 0.5,0.1 to 0.5
CC(C)(C)[C@H](NC(=O)CC1CCOCC1)C(=O)N1C[C@@]2(CC(c3cccc(Cl)c3)=NO2)C[C@H]1C(=O)NC(CC1CCC1)C(=O)C(=O)NC1CC1 (stereo partly shown) [Compound 87],0.1 to 0.5,0.1 to 0.5
CCC[C@H](NC(=O)[C@@H]1C[C@]2(CC(c3cccc(Cl)c3)=NO2)CN1C(=O)[C@@H](NC(=O)CC1CCCCC1)C(C)OC)C(=O)C(=O)NC1CC1 (stereo partly shown) [Compound 124],> 0.5,0.1 to 0.5
CCC[C@H](NC(=O)[C@@H]1C[C@]2(CC(c3cccc(Cl)c3)=NO2)CN1C(=O)[C@@H](NC(=O)CC1CCCCC1)C(C)(C)C)C(=O)C(=O)N1CC[C@@H](NC(C)=O)C1 [Compound 186],> 0.5,> 0.5
C=C[C@@H]1C[C@]1(NC(=O)[C@@H]1C[C@]2(CC(CC)=NO2)CN1C(=O)[C@@H](NC(=O)OC1CCCC1)C(C)(C)C)C(=O)NS(=O)(=O)C1CC1 [Compound 438],> 0.5,0.1 to 0.5
CCC[C@H](NC(=O)[C@@H]1C[C@]2(CC(c3cccc(Cl)c3)=NO2)CN1C(=O)[C@@H](NC(=O)CC1CCCCC1)C(C)(C)C)C(=O)C(=O)N[C@H](C)c1ccccc1 [Compound 296],> 0.5,> 0.5
CCC[C@H](NC(=O)[C@@H]1C[C@]2(CC(c3cccc(Cl)c3)=NO2)CN1C(=O)[C@H](Cc1ccc(OC)cc1)NC(=O)CC1CCCCC1)C(=O)C(=O)NC1CC1 [Compound 213],> 0.5,> 0.5
CC(C)(C)OC(=O)N[C@H]1CCCCC/C=C\[C@@H]2C[C@@]2(C(=O)NS(=O)(=O)C2CC2)NC(=O)[C@@H]2C[C@]3(CC(C(=O)c4ccccc4)=NO3)CN2C1=O [Compound 163],< 0.1,< 0.1
CCC[C@H](NC(=O)[C@@H]1C[C@@]2(CC(c3cc(C)c(OC)c(Cl)c3)=NO2)CN1C(=O)[C@@H](NC(=O)CC1CCCCC1)C(C)(C)C)C(=O)C(=O)NC1CC1 [Compound 111],0.1 to 0.5,0.1 to 0.5
CCC[C@H](NC(=O)[C@@H]1C[C@]2(CC(c3cc(Cl)c4c(c3)OCCN4C)=NO2)CN1C(=O)[C@@H](NC(=O)CC1CCCCC1)C(C)(C)C)C(=O)C(=O)NC1CC1 [Compound 315],< 0.1,< 0.1
